Data on 34 compounds can be found in US11787802B2, “Dihydrobenzimidazolones for medical treatment” (C4 Therapeutics, Inc., priority 2017, dated 2023).

The target of this experiment is hCereblon(M1-L442)_hDDB1(M1-H1140) (Homo sapiens (Human), UniProt Q96SW2). The experiment in a line: Fluorescence direct binding protocol (tryptophan fluorescence titration). As to conditions: fluorescence titration at 20° C., excited at 280 nm, recorded at 340 nm; protein 5.0 E−8 M; assay buffer 50 mM Hepes 7.4 200 mM NaCl; read-out: Fluorescence h-Cereblon_DDB1 Mean Kd_EQ. As to the method:
Fluorescence Direct Binding Protocol
Determination of the affinities of compounds to protein containing one or more tryptophan is measurable by monitoring the fluorescence emission in direct mode. The measurements depending on the protein available amounts are performed either manually in a cuvette on ISS-PC1 photon counting spectrofluorometer or automatically in well plates on a fluorescence plate reader device. Fluorescence titrations are performed at 20° C. in the chosen binding assay buffer by using a defined constant protein concentration against ligand concentration variations. Small aliquots of known ligand concentration solubilized in DMSO were added and the fluorescence, excited at 280 nm, was recorded at 340 nm. The fluorescence intensity was corrected for protein dilution and for the filter effect (Birdsall et al.^69). The corrected fluorescence intensity was plotted against the ligand concentration and fitted using a four-parameter sigmoidal function, from which the equilibrium dissociation constant Kd was computed using the law of mass action assuming a 1:1 protein-ligand complex (Eftink, 1997^70).
Process • 1) Optimization of measurement parameters to minimize protein consumption and to minimize the dilution effect and the DMSO content • 2) Titration measurements of the protein against ligand by at least 12 titration steps to obtain a good s-curve fit • 3) Repeat the same titration measurements with the ligand alone to enable correction • 4) Check the stability of the protein once by titration against DMSO alone • 5) Determination of the molar extinction coefficients of the ligand at 280 and 340 nm with help of an UV-spectrophotometer • 6) Use Excel template for the correction of the measured raw data • 7) Use GraphPad Prism software for the quadratic binding fit and the KD evaluation.

Each structure is given as a SMILES string.

Sequence of hCereblon(M1-L442)_hDDB1(M1-H1140) (Q96SW2 whole entry): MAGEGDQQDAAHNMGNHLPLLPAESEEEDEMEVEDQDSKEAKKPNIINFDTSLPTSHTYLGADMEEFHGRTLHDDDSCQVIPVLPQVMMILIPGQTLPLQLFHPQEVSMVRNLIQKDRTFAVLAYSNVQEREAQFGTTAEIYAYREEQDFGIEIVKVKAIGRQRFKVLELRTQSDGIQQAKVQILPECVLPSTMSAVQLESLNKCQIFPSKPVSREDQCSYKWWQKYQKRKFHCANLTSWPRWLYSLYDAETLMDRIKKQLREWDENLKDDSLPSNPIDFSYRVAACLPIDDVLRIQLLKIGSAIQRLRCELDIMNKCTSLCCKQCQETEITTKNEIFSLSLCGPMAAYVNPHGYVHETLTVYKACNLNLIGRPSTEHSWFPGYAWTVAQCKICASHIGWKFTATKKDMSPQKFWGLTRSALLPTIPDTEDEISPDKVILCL
Sequence of hCereblon(M1-L442)_hDDB1(M1-H1140) (Q16531 whole entry partner): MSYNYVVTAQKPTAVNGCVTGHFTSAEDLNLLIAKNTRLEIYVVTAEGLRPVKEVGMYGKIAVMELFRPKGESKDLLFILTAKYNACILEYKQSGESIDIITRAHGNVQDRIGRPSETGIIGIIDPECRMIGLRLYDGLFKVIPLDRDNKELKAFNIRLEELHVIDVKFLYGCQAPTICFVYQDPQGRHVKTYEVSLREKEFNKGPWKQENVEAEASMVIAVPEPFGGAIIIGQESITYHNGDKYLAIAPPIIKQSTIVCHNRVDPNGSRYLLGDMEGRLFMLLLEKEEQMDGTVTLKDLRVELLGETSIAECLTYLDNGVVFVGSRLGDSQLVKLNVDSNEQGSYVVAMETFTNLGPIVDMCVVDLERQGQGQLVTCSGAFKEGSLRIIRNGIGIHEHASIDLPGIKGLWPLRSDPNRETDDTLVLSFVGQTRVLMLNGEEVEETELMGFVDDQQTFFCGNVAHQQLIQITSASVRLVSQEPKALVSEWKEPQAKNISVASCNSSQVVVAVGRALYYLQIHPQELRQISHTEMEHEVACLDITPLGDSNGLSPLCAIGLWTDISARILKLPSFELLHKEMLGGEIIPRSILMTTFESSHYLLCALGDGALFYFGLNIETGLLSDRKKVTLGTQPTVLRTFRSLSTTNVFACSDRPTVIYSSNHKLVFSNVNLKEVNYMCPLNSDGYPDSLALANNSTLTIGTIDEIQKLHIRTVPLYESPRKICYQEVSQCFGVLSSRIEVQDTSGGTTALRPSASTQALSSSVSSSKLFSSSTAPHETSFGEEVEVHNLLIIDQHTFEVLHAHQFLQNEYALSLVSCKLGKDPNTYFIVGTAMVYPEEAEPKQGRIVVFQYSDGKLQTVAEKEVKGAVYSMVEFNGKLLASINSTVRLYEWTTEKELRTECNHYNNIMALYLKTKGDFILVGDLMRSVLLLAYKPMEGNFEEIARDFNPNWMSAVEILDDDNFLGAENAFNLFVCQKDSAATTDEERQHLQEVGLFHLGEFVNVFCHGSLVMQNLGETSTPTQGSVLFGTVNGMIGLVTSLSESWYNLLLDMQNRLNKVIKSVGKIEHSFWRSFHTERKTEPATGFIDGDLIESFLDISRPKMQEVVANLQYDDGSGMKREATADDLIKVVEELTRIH

Turning to `CC(O)c1nc2ccccc2n1-c1ccc2[nH]c(=O)[nH]c2c1` (stereo not shown) [Example 84, 5-[2-(1-Hydroxyethyl)benzimidazol-1-yl]-1,3-dihydrobenzimidazol-2-one], the Kd is 3 nM. With `CNC(=O)c1ccc2c(c1)nc(C1CCOCC1)n2-c1ccc2[nH]c(=O)[nH]c2c1` [Example 64, N-Methyl-2′-oxo-2-(tetrahydro-2H-pyran-4-yl)-2′,3′-dihydro-1′H-[1,5′-bibenzo[d]imidazole]-5-carboxamide] the figure was 45 nM. With `O=C1CCCN1c1ccc2[nH]c(=O)[nH]c2c1` [Example 33, 5-(2-Oxopyrrolidin-1-yl)-1,3-dihydro-2H-benzo[d]imidazol-2-one] the figure was 24 nM; with `CNC(=O)c1ccc2c(c1)nc(Cc1ccccc1OC)n2-c1ccc2[nH]c(=O)[nH]c2c1` [Example 45, 2-(2-Methoxybenzyl)-N-methyl-2′-oxo-2′,3′-dihydro-1′H-[1,5′-bibenzo[d]imidazole]-5-carboxamide], 22 nM. For `COC(=O)c1ccc(Nc2ccc3[nH]c(=O)[nH]c3c2)c(N)c1` [Example 9, Methyl 3-amino-4-((2-oxo-2,3-dihydro-1H-benzo[d]imidazol-5-yl)amino)benzoate], the Kd worked out at 29 nM.

`Nc1ccc(CC(=O)Nc2ccc3[nH]c(=O)[nH]c3c2)cc1` [Example 70, 2-(4-Aminophenyl)-N-(2-oxo-2,3-dihydro-1H-benzo[d]imidazol-5-yl)acetamide]: the Kd was 1 nM. As to `CNC(=O)c1ccc2c(c1)nc(C(C)(C)C)n2-c1ccc2[nH]c(=O)[nH]c2c1` [Example 46, 2-(tert-Butyl)-N-methyl-2′-oxo-2′,3′-dihydro-1′H-[1,5′-bibenzo[d]imidazole]-5-carboxamide], the Kd was 10 nM. `Cc1sc2c(c1C)C(c1ccc(Cl)cc1)=N[C@@H](CC(=O)NCCOCCOCCNC(=O)c1ccc3c(c1)nc(-c1ccnc4ccccc14)n3-c1ccc3[nH]c(=O)[nH]c3c1)c1nnc(C)n1-2` [Example C, (S)—N-(2-(2-(2-(2-(4-(4-Chlorophenyl)-2,3,9-trimethyl-6H-thieno[3,2-f][1,2,4]triazolo[4,3-a][1,4]diazepin-6-yl)acetamido)ethoxy)ethoxy)ethyl)-2′-oxo-2-(quinolin-4-yl)-2′,3′-dihydro-1′H-[1,5′-bibenzo[d]imidazole]-5-carboxamide]: the Kd turned out to be 19 nM. For `Cn1c(=O)[nH]c2cc(Nc3ccccc3N)ccc21` [Example 53, 5-((2-Aminophenyl)amino)-1-methyl-1,3-dihydro-2H-benzo[d]imidazol-2-one] the value was 49 nM. For `CNC(=O)c1ccc2nc(C(C)C)n(-c3ccc4[nH]c(=O)[nH]c4c3)c2c1` [Example 30, 2-Isopropyl-N-methyl-2′-oxo-2′,3′-dihydro-1′H-[1,5′-bibenzo[d]imidazole]-6-carboxamide] the value was 1 nM; for `O=C(Nc1cccc(F)c1)Nc1ccc2[nH]c(=O)[nH]c2c1` [Example 127, 1-(3-Fluorophenyl)-3-(2-oxo-2,3-dihydro-1H-benzo[d]imidazol-5-yl)urea], 26 nM; for `CNC(=O)c1cccc2c1CCCN2C(=O)Nc1ccc2[nH]c(=O)[nH]c2c1` [Example 109, N5-Methyl-N1-(2-oxo-2,3-dihydro-1H-benzo[d]imidazol-5-yl)-3,4-dihydroquinoline-1,5(2H)-dicarboxamide], 39 nM. Turning to `CCOC(=O)c1ccc2c(c1)CN(c1ccc3[nH]c(=O)[nH]c3c1)C2=O` [Example 111, Ethyl 1-oxo-2-(2-oxo-1,3-dihydrobenzimidazol-5-yl)isoindoline-5-carboxylate], the Kd was 18 nM. For the compound `O=c1[nH]c2cnc(-c3ccc(F)cc3)cc2[nH]1` [Example 36, 6-(4-Fluoro-phenyl)-1,3-dihydro-imidazo[4,5-c]pyridin-2-one], the Kd worked out at 77 nM. With `O=C(Nc1ccc2[nH]c(=O)[nH]c2c1)N1CCc2ccc(Cl)cc21` [Example 129, 6-Chloro-N-(2-oxo-2,3-dihydro-1H-benzo[d]imidazol-5-yl)indoline-1-carboxamide], the Kd amounted to 188 nM. With `CCc1nc2cc(C(=O)NCCOCCOCCNC(=O)C[C@@H]3N=C(c4ccc(Cl)cc4)c4c(sc(C)c4C)-n4c(C)nnc43)ccc2n1-c1ccc2[nH]c(=O)[nH]c2c1` [Example B, (S)—N-(2-(2-(2-(2-(4-(4-Chlorophenyl)-2,3,9-trimethyl-6H-thieno[3,2-f][1,2,4]triazolo[4,3-a][1,4]diazepin-6-yl)acetamido)ethoxy)ethoxy)ethyl)-2-ethyl-2′-oxo-2′,3′-dihydro-1′H-[1,5′-bibenzo[d]imidazole]-5-carboxamide] the figure was 51 nM; with `O=c1[nH]c2ccc(-c3cc(F)ccc3F)cc2[nH]1` [Example 37, 5-(2,5-Difluoro-phenyl)-1,3-dihydro-benzoimidazol-2-one], 10 nM; with `CC(C)c1nccn1-c1ccc2[nH]c(=O)[nH]c2c1` [Example 32, 5-(2-Isopropyl-1H-imidazol-1-yl)-1,3-dihydro-2H-benzo[d]imidazol-2-one], 6 nM.

Consider `O=c1[nH]c2ccc(-n3c(-c4ccnc5ccccc45)nc4ccccc43)cc2[nH]1` [Example 7, 2-(Quinolin-4-yl)-1′H-[1,5′-bibenzo[d]imidazol]-2′(3′H)-one], for which the Kd turned out to be 27 nM. With `CNC(=O)c1ccccc1NC(=O)c1ccc2[nH]c(=O)[nH]c2c1` [Example 147, N-(2-(Methylcarbamoyl)phenyl)-2-oxo-2,3-dihydro-1H-benzo[d]imidazole-5-carboxamide] the figure was 338 nM; with `NS(=O)(=O)c1ccc(CC(=O)Nc2ccc3[nH]c(=O)[nH]c3c2)cc1` [Example 99, N-(2-Oxo-2,3-dihydro-1H-benzo[d]imidazol-5-yl)-2-(4-sulfamoylphenyl)acetamide], 46 nM. `CNC(=O)c1ccc2c(c1)nc(-c1ccncc1)n2-c1ccc2[nH]c(=O)[nH]c2c1` [Example 11, N-Methyl-2′-oxo-2-(pyridin-4-yl)-2′,3′-dihydro-1′H-[1,5′-bibenzo[d]imidazole]-5-carboxamide]: the Kd amounted to 8 nM. In the case of `O=c1[nH]c2ccc(-c3ccc(-n4cccc4)cc3)cc2[nH]1` [Example 41, 5-(4-Pyrrol-1-yl-phenyl)-1,3-dihydro-benzoimidazol-2-one], the Kd worked out at 18 nM. In the case of `CC(=O)N1[C@@H]2CC[C@H]1CN(c1ccc3[nH]c(=O)[nH]c3c1)C2` [Example 63, 5-[rac-(1S,5R)-8-Acetyl-3,8-diazabicyclo[3.2.1]octan-3-yl]-1,3-dihydrobenzimidazol-2-one], the Kd was 79 nM. As to `O=c1[nH]c2ccc(CCCc3ccccc3)nc2[nH]1` [Example 26, 5-(3-Phenyl-propyl)-1,3-dihydro-imidazo[4,5-b]pyridin-2-one], the Kd came out at 41 nM. For `CNC(=O)c1ccc2c(c1)nc(C)n2-c1ccc2[nH]c(=O)[nH]c2c1` [Example 5, N,2-Dimethyl-2′-oxo-2′,3′-dihydro-1′H-[1,5′-bibenzo[d]imidazole]-5-carboxamide] the value was 180 nM; for `O=c1[nH]c2ccc(-c3cccc4ncccc34)cc2[nH]1` [Example 42, 5-Quinolin-5-yl-1,3-dihydro-benzoimidazol-2-one], 336 nM. With `CNC(=O)c1ccc(Nc2ccc3[nH]c(=O)[nH]c3c2)c(N)c1` [Example 1, 3-Amino-N-methyl-4-[(2-oxo-1,3-dihydrobenzimidazol-5-yl)amino]benzamide] the figure was 587 nM; with `COC(=O)c1cccc2c1nc(C(C)C)n2-c1ccc2[nH]c(=O)[nH]c2c1` [Example 47, Methyl 2-isopropyl-2′-oxo-2′,3′-dihydro-1′H-[1,5′-bibenzo[d]imidazole]-4-carboxylate], 20 nM; with `CNC(=O)c1ccc2c(c1)nc(-c1ccnc(OC)c1)n2-c1ccc2[nH]c(=O)[nH]c2c1` [Example 108, 2-(2-Methoxypyridin-4-yl)-N-methyl-2′-oxo-2′,3′-dihydro-1′H-[1,5′-bibenzo[d]imidazole]-5-carboxamide], 107 nM. With `O=c1[nH]c2ccc(NS(=O)(=O)c3coc4ccccc34)cc2[nH]1` [Example 137, N-(2-Oxo-2,3-dihydro-1H-benzo[d]imidazol-5-yl)benzofuran-3-sulfonamide] the figure was 22 nM. On to `COc1ccc2c(c1)nc(C(C)C)n2-c1ccc2[nH]c(=O)[nH]c2c1` [Example 124, 2-Isopropyl-5-methoxy-1′,3′-dihydro-2′H-[1,5′-bibenzo[d]imidazol]-2′-one], for which the Kd stood at 13 nM. For the compound `CN(C(=O)c1ccc2[nH]c(=O)[nH]c2c1)c1ccccc1` [Example 96, N-Methyl-2-oxo-N-phenyl-2,3-dihydro-1H-benzo[d]imidazole-5-carboxamide], the Kd is 9 nM. On to `CC(C)(C)OC(=O)Nc1ccc2c(c1)CCN2C(=O)Nc1ccc2[nH]c(=O)[nH]c2c1` [Example 119, tert-Butyl (1-((2-oxo-2,3-dihydro-1H-benzo[d]imidazol-5-yl)carbamoyl)indolin-5-yl)carbamate], for which the Kd was 113 nM.
